From publication PMC2248166, “Quantitative peptide binding motifs for 19 human and mouse MHC class I molecules derived using positional scanning combinatorial peptide libraries” (Immunome Research, 2008)

Assays:
HLA A*3001 = HLA A*3001 (Homo sapiens, UniProt P04439, D140H/D185E/E176W/F33S/G80R/H175R/K168Q/R138E/R41S); assay: biochemical; format: binding
HLA A*3201 = HLA A*3201 (Homo sapiens, UniProt P04439, A270S/D101S/D185E/E176V/E277Q/F133L/G103R/G107R/G231S/H175R/I121M/I218V/I322F/K168Q/L105A/L300P/L318F/M331R/P208A/P217A/Q94H/R106L/R138Q/S129P/T104I/T323A/T345S/V100E/V321M/V358M); assay: biochemical; format: binding
HLA A*6802 = HLA A*6802 (Homo sapiens, UniProt P04439, A269V/D140Y/D185E/E176V/E277Q/E87N/F33Y/G231S/I121R/I166T/I218V/L180W/L300P/L318F/N151K/P208A/P217A/Q86R/R138H/R169H/S129P/T345S/V36M); format: binding
HLA B*0702 = HLA B*0702 (Homo sapiens, UniProt P01889); format: binding; details: positional scanning combinatorial 9-mer library; normalized to 1.0 for the best residue at each position
HLA B*0801 = HLA B*0801 (Homo sapiens, UniProt P01889, A93T/A95T/D138N/E176V/E187T/K202T/Q94N/R180D/S35A/V36M/Y33D/Y91F); assay: biochemical; format: binding
HLA B*1501 = HLA B*1501 (Homo sapiens, UniProt P01889, A329T/A93T/A95T/C349S/D201E/D98Y/E187L/E204Q/E69M/E70A/K202T/N87E/Q94N/R155S/R180W/S121R/S35A/S48A/V306I/V36M/Y140S/Y91S); assay: biochemical; format: binding
HLA B*1503 = HLA B*1503 (Homo sapiens, UniProt P01889, A329T/A93T/A95T/C349S/D201E/D98Y/E187L/E204Q/K202T/N87E/Q94N/R155S/R180L/S121R/S35A/V306I/V36M/Y140S/Y91S); assay: biochemical; format: binding
HLA B*2705 = HLA B*2705 (Homo sapiens, UniProt P01889, D138H/D201E/E176V/E204Q/G107R/H137Y/K202T/N104T/N87E/Q56L/Q94K/R106L/R155S/R180L/S101D/S121N/S48T/Y140D/Y33H/Y91C); format: binding; details: positional scanning combinatorial 9-mer library; normalized to 1.0 for the best residue at each position
HLA B*3501 = HLA B*3501 (Homo sapiens, UniProt P01889, A329T/A93T/A95T/C349S/D201E/D98Y/E176V/E187L/E204Q/E69T/I218V/K202T/L119I/Q94N/R155S/R180L/S121R/S35A/S48A/T118I/V127L/V306I/V36M/Y140S/Y91F); format: binding
HLA B*5101 = HLA B*5101 (Homo sapiens, UniProt P01889, A329T/A93T/A95T/C349S/D138N/D201E/D98Y/E187L/E204Q/E69T/G107R/I218V/K202T/L105A/L119W/N104I/Q94N/R106L/R155S/R180L/S101N/S121T/S35A/S48A/V306I/V36M/Y195H/Y91F); format: binding
HLA B*5301 = HLA B*5301 (Homo sapiens, UniProt P01889, A329T/A93T/A95T/C349S/D201E/D98Y/E176V/E187L/E204Q/E69T/G107R/I218V/K202T/L105A/L119I/N104I/Q94N/R106L/R155S/R180L/S101N/S121R/S35A/S48A/T118I/V127L/V306I/V36M/Y140S/Y91F); format: binding
HLA B*5401 = HLA B*5401 (Homo sapiens, UniProt P01889, A329T/C349S/D138N/D201E/E176V/E187T/E204Q/E69G/I76V/K202T/L119W/R155S/R180L/S121T/S35A/S48A/V127L/V306I/V36M/Y140L); format: binding
HLA B*5801 = HLA B*5801 (Homo sapiens, UniProt P01889, A329T/C349S/D201E/D98Y/E176V/E187L/E204Q/E69T/G107R/I218V/I90N/K202T/L105A/L119I/N104I/N87E/Q89R/Q94S/R106L/R155S/R180L/R86G/S101N/S121R/S35A/S48A/T118I/V127L/V306I/V36M/Y140S/Y91M); format: binding
HLA B*5802 = HLA B*5802 (Homo sapiens, UniProt P01889, A329T/C349S/D201E/D98Y/E176V/E187L/E204Q/E69T/G107R/I218V/I90N/K202T/L105A/N104I/N87E/Q89R/Q94S/R106L/R155S/R180L/R86G/S101N/S121W/S35A/S48A/V127L/V306I/V36M/Y140S/Y91M); format: binding
H-2 D^b = H-2 D^b (Mus musculus, UniProt P01899); format: binding
H-2 D^d = H-2 D^d (Mus musculus, UniProt P01900); format: binding
H-2 K^k = H-2 K^k (Mus musculus, UniProt P04223); format: binding
HLA A*0201 = HLA A*0201 (Homo sapiens, UniProt P04439, D140Y/D185E/D98H/E176V/E277Q/G131W/G231S/I119V/I121R/I166T/I218V/L300P/L318F/N151K/N90K/P208A/P217A/Q86G/Q94H/R138H/R169H/T345S); details: positional scanning combinatorial 9-mer library; normalized to 1.0 for the best residue at each position

H-2 K^k, sequence (P01887 21-119): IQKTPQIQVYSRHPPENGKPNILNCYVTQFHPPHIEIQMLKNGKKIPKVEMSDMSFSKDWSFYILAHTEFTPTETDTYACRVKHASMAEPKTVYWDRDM
H-2 K^k, sequence (P04223 22-369): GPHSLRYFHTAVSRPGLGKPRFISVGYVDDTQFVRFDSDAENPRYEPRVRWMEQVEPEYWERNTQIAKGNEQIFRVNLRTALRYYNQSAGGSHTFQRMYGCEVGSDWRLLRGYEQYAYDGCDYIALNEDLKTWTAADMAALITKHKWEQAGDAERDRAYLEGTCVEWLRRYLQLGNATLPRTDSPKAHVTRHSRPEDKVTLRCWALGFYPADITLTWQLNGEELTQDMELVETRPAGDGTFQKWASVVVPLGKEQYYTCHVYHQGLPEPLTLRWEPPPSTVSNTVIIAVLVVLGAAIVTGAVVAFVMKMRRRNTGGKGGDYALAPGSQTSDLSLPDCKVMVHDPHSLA
H-2 D^b, sequence (P01887 21-119): as the sequence (P01887 21-119) above
H-2 D^b, sequence (P01899 25-362): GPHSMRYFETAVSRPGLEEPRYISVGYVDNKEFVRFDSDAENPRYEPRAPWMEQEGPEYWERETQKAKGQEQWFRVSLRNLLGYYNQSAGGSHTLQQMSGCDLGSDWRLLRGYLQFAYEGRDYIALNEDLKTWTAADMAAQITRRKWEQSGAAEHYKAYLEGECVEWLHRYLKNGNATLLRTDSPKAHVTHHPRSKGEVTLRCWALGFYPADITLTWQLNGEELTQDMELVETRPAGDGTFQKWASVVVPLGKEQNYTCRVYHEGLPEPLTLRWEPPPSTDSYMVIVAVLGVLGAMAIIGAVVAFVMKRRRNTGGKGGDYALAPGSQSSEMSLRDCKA
H-2 D^d, sequence (P01900 whole entry, looked up): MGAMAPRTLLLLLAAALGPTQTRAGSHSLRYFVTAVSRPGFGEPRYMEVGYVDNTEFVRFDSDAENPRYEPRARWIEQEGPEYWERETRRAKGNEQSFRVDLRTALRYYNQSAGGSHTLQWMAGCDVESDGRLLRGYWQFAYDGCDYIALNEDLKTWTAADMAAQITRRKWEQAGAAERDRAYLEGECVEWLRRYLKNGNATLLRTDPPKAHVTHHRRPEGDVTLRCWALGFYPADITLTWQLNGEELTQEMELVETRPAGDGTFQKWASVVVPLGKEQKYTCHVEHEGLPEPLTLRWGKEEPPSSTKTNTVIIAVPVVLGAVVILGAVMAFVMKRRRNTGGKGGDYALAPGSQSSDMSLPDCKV

Row | Sequence | Normalized average relative binding affinity (ARB), HLA A*3001 (HLA A*3001) | Normalized average relative binding affinity (ARB), HLA A*3201 (HLA A*3201) | Normalized average relative binding affinity (ARB), HLA A*6802 (HLA A*6802) | Normalized average relative binding affinity (ARB), HLA B*0702 (HLA B*0702) | Normalized average relative binding affinity (ARB), HLA B*0801 (HLA B*0801) | Normalized average relative binding affinity (ARB), HLA B*1501 (HLA B*1501) | Normalized average relative binding affinity (ARB), HLA B*1503 (HLA B*1503) | Normalized average relative binding affinity (ARB), HLA B*2705 (HLA B*2705) | Normalized average relative binding affinity (ARB), HLA B*3501 (HLA B*3501) | Normalized average relative binding affinity (ARB), HLA B*5101 (HLA B*5101) | Normalized average relative binding affinity (ARB), HLA B*5301 (HLA B*5301) | Normalized average relative binding affinity (ARB), HLA B*5401 (HLA B*5401) | Normalized average relative binding affinity (ARB), HLA B*5801 (HLA B*5801) | Normalized average relative binding affinity (ARB), HLA B*5802 (HLA B*5802) | Normalized average relative binding affinity (ARB), H-2 Db (H-2 D^b) | Normalized average relative binding affinity (ARB), H-2 Dd (H-2 D^d) | Normalized average relative binding affinity (ARB), H-2 Kk (H-2 K^k) | Normalized average relative binding affinity (ARB), HLA A*0201 (HLA A*0201)
1 | XXGXXXXXX [3064.0046] | 0.0022 | 0.20 | 0.061 | 0.052 | 0.086 | 0.14 | 0.063 | 0.17 | 0.068 | 0.078 | 0.046 | 0.025 | 0.12 | 0.17 | 0.13 | 0.0040 | 0.19 | 0.098
2 | XXVXXXXXX [3064.0058] | 0.0059 | 0.31 | 0.64 | 0.040 | 0.024 | 0.14 | 1.0 | 0.19 | 0.19 | 0.25 | 0.11 | 0.034 | 1.0 | 0.56 | 0.17 | 0.0094 | 0.26 | 0.25
3 | QXXXXXXXX [3064.0014] | 0.063 | 0.23 | 0.039 | 0.065 | 0.048 | 0.25 | 0.074 | 0.067 | 0.081 | 0.037 | 0.021 | 0.031 | 0.17 | 0.033 | 0.060 | 0.39 | 0.45 | 0.019
4 | XXMXXXXXX [3064.0051] | 0.028 | 0.94 | 1.0 | 1.0 | 0.90 | 0.77 | 0.33 | 0.87 | 1.0 | 1.0 | 1.0 | 0.24 | 0.48 | 0.57 | 0.31 | 0.0095 | 1.0 | 1.0
